Measured values published in ChEMBL document CHEMBL1133438, “Potent acetylcholinesterase inhibitors: design, synthesis and structure-activity relationships of alkylene linked bis-galanthamine and galanthamine-galanthaminium salts” (Bioorg Med Chem Lett, 2000).

The molecules below were run against Acetylcholinesterase (Electrophorus electricus, UniProt O42275) (assay: Compound was assessed for in vitro inhibition of Acetylcholinesterase isolated from Electrophorus electricus).
Sequence of Acetylcholinesterase (O42275 whole entry): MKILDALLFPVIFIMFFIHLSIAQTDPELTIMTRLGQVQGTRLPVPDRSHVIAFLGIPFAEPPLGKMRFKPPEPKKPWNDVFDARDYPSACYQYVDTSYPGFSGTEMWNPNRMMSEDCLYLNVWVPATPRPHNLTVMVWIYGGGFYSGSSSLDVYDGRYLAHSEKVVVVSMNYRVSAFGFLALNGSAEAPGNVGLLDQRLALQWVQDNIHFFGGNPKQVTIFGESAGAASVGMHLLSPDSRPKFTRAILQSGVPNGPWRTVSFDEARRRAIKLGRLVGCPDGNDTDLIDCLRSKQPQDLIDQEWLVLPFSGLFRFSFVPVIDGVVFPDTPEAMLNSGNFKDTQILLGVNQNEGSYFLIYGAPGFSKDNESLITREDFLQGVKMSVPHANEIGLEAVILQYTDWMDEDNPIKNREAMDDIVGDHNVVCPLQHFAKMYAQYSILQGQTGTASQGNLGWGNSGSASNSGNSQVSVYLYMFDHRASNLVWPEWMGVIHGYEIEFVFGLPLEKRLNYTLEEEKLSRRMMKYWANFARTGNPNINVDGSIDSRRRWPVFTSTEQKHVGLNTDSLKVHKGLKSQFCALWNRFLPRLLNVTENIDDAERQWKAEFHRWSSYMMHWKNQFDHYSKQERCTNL

`COc1ccc2c3c1OC1C[C@@H](O)C=C[C@@]31CCN(CCCCCCCCN1CC[C@@]34C=C[C@H](OC)C[C@@H]3Oc3c(OC)ccc(c34)C1)C2` (stereo partly specified) was tested. Which IC50 did it give?
The IC50 was 230 nM.

Which IC50 does the source give for `COc1ccc2c3c1OC1C[C@@H](O)C=C[C@@]31CC[N+](CCCCCCCCN1CC[C@@]34C=C[C@H](O)C[C@@H]3Oc3c(OC)ccc(c34)C1)=C2` (stereo partly specified) here?
The IC50 was 22 nM.

With `COc1ccc2c3c1OC1C[C@@H](O)C=C[C@@]31CC[N+](CCCCCCCCCCN1CC[C@@]34C=C[C@H](O)C[C@@H]3Oc3c(OC)ccc(c34)C1)=C2` (stereo partly specified) as the molecule, how does the IC50 read?
Its IC50 is 12 nM.

With `COc1ccc2c3c1OC1C[C@@H](O)C=C[C@@]31CCN(CCCCCCCCCCN1CC[C@@]34C=C[C@H](OC)C[C@@H]3Oc3c(OC)ccc(c34)C1)C2` (stereo partly specified) as the molecule, how does the IC50 read?
Its IC50 is 560 nM.

With `COc1ccc2c3c1OC1C[C@@H](O)C=C[C@@]31CCN(CCCCCCN1CC[C@@]34C=C[C@H](OC)C[C@@H]3Oc3c(OC)ccc(c34)C1)C2` (stereo partly specified) as the molecule, how does the IC50 read?
The IC50 was 450 nM.

With `COc1ccc2c3c1OC1C[C@@H](O)C=C[C@@]31CC[N+](CCCCCCN1CC[C@@]34C=C[C@H](O)C[C@@H]3Oc3c(OC)ccc(c34)C1)=C2` (stereo partly specified) as the molecule, how does the IC50 read?
The IC50 was 68 nM.
